IC50 data for 17 compounds are collected here from patent publication US8871753B2, “Macrocyclic compounds and their use as kinase inhibitors” (Incyte Corporation, priority 2008, dated 2014).

Common to all, as to format: biochemical
For experiment [1], the target named is T1, human JAK2 (a.a. 828-1132) (Homo sapiens, UniProt O60674).
T1 construct: JAK2 (a.a. 828-1132); His tag (N); made in house; host or cells: insect cells (baculovirus)
Briefly: In vitro JAK kinase assay (HTRF, phosphorylation of a biotinylated peptide), JAK2. A digest of the protocol: (§1)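 Kinase reactions ran at room temperature for 1 h with ATP matched per isoform (JAK1 90 μM, JAK2 30 μM, JAK3 3 μM). After an EDTA stop, the phosphorylated biotin-peptide was read by HTRF using Eu-Py20 and SA-APC after 40 min binding.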

Experiment [2] addresses TYK2 (Homo sapiens, UniProt P29597). Briefly: TYK2 kinase inhibition (Table A1).
Experiment [3] concerns the target T2, human JAK1 (a.a. 837-1142) (Homo sapiens, UniProt P23458).
T2 construct: human JAK1 (a.a. 837-1142); His tag (N); made in house; host or cells: insect cells (baculovirus)
Briefly: In vitro JAK kinase assay (HTRF, phosphorylation of a biotinylated peptide), JAK1. Particulars: read-out: JAK1 IC50. A digest of the protocol: as §1

For experiment [4], the target named is T3, human JAK3 (a.a. 781-1124) (Homo sapiens, UniProt P52333).
T3 construct: JAK3 (a.a. 781-1124); His tag (N); made in house; host or cells: insect cells (baculovirus)
T3 sequence (P52333 781-1124): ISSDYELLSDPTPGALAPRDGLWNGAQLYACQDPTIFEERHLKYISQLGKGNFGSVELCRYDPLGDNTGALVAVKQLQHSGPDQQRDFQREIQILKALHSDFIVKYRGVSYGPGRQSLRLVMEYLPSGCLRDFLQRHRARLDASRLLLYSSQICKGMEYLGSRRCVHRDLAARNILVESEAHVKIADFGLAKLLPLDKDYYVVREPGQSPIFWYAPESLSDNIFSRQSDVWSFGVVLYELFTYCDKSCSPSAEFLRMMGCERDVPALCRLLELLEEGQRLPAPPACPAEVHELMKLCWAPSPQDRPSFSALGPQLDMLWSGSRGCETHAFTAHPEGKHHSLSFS
In words: In vitro JAK kinase assay (HTRF, phosphorylation of a biotinylated peptide), JAK3. A digest of the protocol:
as §1
Background: Time-resolved FRET reads energy transfer from a long-lived donor to a nearby acceptor.

Structures can show the parent of a compound that is named as a salt. Where two headings read alike, the source gives them in different places.

Chain of TYK2 (P29597 whole entry): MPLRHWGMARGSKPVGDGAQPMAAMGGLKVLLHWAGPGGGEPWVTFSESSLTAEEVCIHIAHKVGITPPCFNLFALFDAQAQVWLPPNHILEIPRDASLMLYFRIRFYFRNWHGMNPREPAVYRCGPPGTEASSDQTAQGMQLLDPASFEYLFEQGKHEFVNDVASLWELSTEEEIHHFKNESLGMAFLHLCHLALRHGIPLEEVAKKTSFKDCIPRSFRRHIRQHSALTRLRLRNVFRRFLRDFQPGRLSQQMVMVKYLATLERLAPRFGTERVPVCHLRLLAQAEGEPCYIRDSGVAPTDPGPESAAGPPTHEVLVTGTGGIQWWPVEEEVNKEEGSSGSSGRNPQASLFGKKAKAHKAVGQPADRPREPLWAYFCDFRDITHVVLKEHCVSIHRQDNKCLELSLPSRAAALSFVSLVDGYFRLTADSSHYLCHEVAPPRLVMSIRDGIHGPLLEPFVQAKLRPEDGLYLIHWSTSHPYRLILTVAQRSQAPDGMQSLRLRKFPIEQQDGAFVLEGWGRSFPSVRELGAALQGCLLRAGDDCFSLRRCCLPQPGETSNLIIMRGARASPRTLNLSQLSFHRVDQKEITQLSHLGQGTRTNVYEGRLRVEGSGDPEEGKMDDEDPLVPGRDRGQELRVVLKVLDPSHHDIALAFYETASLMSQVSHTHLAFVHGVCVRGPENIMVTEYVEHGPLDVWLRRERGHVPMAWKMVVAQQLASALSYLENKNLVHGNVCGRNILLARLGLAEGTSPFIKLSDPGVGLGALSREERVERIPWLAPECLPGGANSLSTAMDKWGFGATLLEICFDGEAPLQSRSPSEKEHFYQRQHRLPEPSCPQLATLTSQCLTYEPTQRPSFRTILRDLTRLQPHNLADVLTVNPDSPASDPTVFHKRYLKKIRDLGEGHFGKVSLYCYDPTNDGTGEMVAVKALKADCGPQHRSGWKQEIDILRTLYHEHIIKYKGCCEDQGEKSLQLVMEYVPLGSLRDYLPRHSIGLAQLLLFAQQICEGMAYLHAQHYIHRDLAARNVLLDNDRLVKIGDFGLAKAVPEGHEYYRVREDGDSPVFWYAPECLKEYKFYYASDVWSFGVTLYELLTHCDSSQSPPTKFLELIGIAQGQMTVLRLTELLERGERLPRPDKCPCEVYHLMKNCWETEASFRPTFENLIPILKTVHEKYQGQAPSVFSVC
T2 sequence (P23458 849-1154): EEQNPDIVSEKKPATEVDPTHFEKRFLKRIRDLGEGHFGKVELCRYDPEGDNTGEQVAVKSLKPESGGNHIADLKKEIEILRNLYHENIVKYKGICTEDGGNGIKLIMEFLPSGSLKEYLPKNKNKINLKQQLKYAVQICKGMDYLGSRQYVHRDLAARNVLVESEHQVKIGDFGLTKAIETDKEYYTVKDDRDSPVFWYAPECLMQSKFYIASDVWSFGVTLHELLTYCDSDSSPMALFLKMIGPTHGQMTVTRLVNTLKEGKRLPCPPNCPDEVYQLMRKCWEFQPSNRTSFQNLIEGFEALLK
T1 sequence (O60674 828-1132): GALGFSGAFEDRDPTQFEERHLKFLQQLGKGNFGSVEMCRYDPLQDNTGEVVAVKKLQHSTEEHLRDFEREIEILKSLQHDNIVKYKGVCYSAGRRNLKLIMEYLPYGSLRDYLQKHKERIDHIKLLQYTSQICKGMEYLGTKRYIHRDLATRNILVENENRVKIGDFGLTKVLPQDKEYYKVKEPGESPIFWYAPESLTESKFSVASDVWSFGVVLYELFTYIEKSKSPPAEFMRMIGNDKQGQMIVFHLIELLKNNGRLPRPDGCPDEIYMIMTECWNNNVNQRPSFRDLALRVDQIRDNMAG

Consider `O=C(COc1ccc2cc1CCc1cncc(c1)Nc1ncc(Cl)c(n1)N2)N1CCN(C(=O)C2CCOC2)CC1` (centres unmarked) [Example D271, 6-Chloro-12-{2-oxo-2-[4-(tetrahydrofuran-3-ylcarbonyl)piperazin-1-yl]ethoxy}-2,4,8,18,22-pentaazatetracyclo[14.3.1.1(3,7).1(9,13)]docosa-1(20),3(22),4,6,9(21),10,12,16,18-nonaene bis(trifluoroacetate)], for which the IC50 in experiment [1] (Table D1) was over 400 nM; in experiment [2] (Table D1) it was over 400 nM; in experiment [3] (Table D1), 75 nM; in experiment [4] (Table D1), over 400 nM.

As to `O=C(C[C@H]1CCCNC1)Nc1ccc2cc1CCc1cccc(c1)Nc1ncc(Cl)c(n1)N2` [Example D193, N-[6-Chloro-2,4,8,22-tetraazatetracyclo[14.3.1.1(3,7).1(9,13)]docosa-1(20),3(22),4,6,9(21),10,12,16,18-nonaen-12-yl]-2-[(3R)-piperidin-3-yl]acetamidebis(trifluoroacetate)], the IC50 in experiment [1] (Table D1) was found to be 8.3 nM; in experiment [2] (Table D1), 6.1 nM; in experiment [3] (Table D1), 1.4 nM; in experiment [4] (Table D1), 32 nM.

For the compound `N#Cc1ccccc1N1CCN(C(=O)COc2ccc3cc2CCc2cncc(c2)Nc2ncc(Cl)c(n2)N3)CC1` [Example D235, 2-[4-({[6-Chloro-2,4,8,18,22-pentaazatetracyclo[14.3.1.1(3,7).1(9,13)]docosa-1(20),3(22),4,6,9(21),10,12,16,18-nonaen-12-yl]oxy}acetyl)piperazin-1-yl]benzonitrile tris(trifluoroacetate)], the IC50 was over 400 nM in experiment [1] (Table D1), over 400 nM in experiment [2] (Table D1), 64 nM in experiment [3] (Table D1) and over 400 nM in experiment [4] (Table D1).

For the compound `O=C(CC1CCN(c2nncs2)C1)Nc1ccc2cc1CCc1cncc(c1)Nc1ncc(Cl)c(n1)N2` (centres unmarked) [Example D155, N-[6-Chloro-2,4,8,18,22-pentaazatetracyclo[14.3.1.1(3,7).1(9,13)]docosa-1(20),3(22),4,6,9(21),10,12,16,18-nonaen-12-yl]-2-[1-(1,3,4-thiadiazol-2-yl)pyrrolidin-3-yl]acetamide tris(trifluoroacetate)], the IC50 in experiment [1] (Table D1) was 120 nM; in experiment [2] (Table D1), over 400 nM; in experiment [3] (Table D1), 29 nM; in experiment [4] (Table D1), over 400 nM.

As for `O=c1[nH]c2cc3cc(c2o1)CCc1cccc(c1)Nc1ncc(Cl)c(n1)N3` [Example D184, 4-Chloro-18-oxa-2,6,8,20,25-pentaazapentacyclo[14.6.1.1(3,7).1(9,13).0(17,21)]pentacosa-1(23),3(25),4,6,9(24),10,12,16,21-nonaen-19-one], the IC50 stood at 2.8 nM in experiment [1] (Table D1), 1.8 nM in experiment [2] (Table D1), 0.9 nM in experiment [3] (Table D1) and 21 nM in experiment [4] (Table D1).

`O=C(Nc1ccccc1)N1CCN(c2ccc3cc2CCc2cccc(c2)Nc2ncc(Cl)c(n2)N3)CC1` [Example D92, 4-[6-Chloro-2,4,8,22-tetraazatetracyclo[14.3.1.1(3,7).1(9,13)]docosa-1(20),3(22),4,6,9(21),10,12,16,18-nonaen-12-yl]-N-phenylpiperazine-1-carboxamide bis(trifluoroacetate)]: the IC50 in experiment [1] (Table D1) is 4.9 nM; in experiment [2] (Table D1), 25 nM; in experiment [3] (Table D1), 16 nM; in experiment [4] (Table D1), 36 nM.

As for `O=C(COc1ccc2cc1CCc1cncc(c1)Nc1ncc(Cl)c(n1)N2)N1CCN(c2nccs2)CC1` [Example D230, 6-Chloro-12-{2-oxo-2-[4-(1,3-thiazol-2-yl)piperazin-1-yl]ethoxy}-2,4,8,18,22-pentaazatetracyclo[14.3.1.1(3,7).1(9,13)]docosa-1(20),3(22),4,6,9(21),10,12,16,18-nonaene tris(trifluoroacetate)], the IC50 is 47 nM in experiment [1] (Table D1), over 400 nM in experiment [2] (Table D1), 25 nM in experiment [3] (Table D1) and over 400 nM in experiment [4] (Table D1).

Take `O=C(Nc1cccs1)N1CCC(CCOc2ccc3cc2CCc2cncc(c2)Nc2ncc(Cl)c(n2)N3)CC1` [Example D167, 4-(2-{[6-Chloro-2,4,8,18,22-pentaazatetracyclo[14.3.1.1(3,7).1(9,13)]docosa-1(20),3(22),4,6,9(21),10,12,16,18-nonaen-12-yl]oxy}ethyl)-N-2-thienylpiperidine-1-carboxamide bis(trifluoroacetate)]: the 50% inhibitory concentration (IC50) in experiment [1] (Table D1) was 244 nM; in experiment [2] (Table D1), over 400 nM; in experiment [3] (Table D1) it was 57 nM; in experiment [4] (Table D1) it was over 400 nM.

`O=C(CC1CN(c2nc3cccnc3o2)C1)Nc1ccc2cc1CCc1cncc(c1)Nc1ncc(Cl)c(n1)N2` [Example D141, N-[6-Chloro-2,4,8,18,22-pentaazatetracyclo[14.3.1.1(3,7).1(9,13)]docosa-1(20),3(22),4,6,9(21),10,12,16,18-nonaen-12-yl]-2-(1-[1,3]oxazolo[5,4-b]pyridin-2-ylazetidin-3-yl)acetamide tris(trifluoroacetate)]: the IC50 in experiment [1] (Table D1) is 106 nM; in experiment [2] (Table D1) it was 262 nM; in experiment [3] (Table D1), 9 nM; in experiment [4] (Table D1), over 1000 nM.

On to `O=C(COc1ccc2cc1CCc1cncc(c1)Nc1ncc(Cl)c(n1)N2)N1CCN(C(=O)c2ccno2)CC1` [Example D260, 6-Chloro-12-{2-[4-(isoxazol-5-ylcarbonyl)piperazin-1-yl]-2-oxoethoxy}-2,4,8,18,22-pentaazatetracyclo[14.3.1.1(3,7).1(9,13)]docosa-1(20),3(22),4,6,9(21),10,12,16,18-nonaene bis(trifluoroacetate)], for which the half-maximal inhibitory concentration (IC50) is 22 nM in experiment [1] (Table D1), 288 nM in experiment [2] (Table D1), 15 nM in experiment [3] (Table D1) and over 400 nM in experiment [4] (Table D1).

As to `O=C(COc1ccc2cc1CCc1cncc(c1)Nc1ncc(Cl)c(n1)N2)N1CCN(c2ccccn2)CC1` [Example D231, 6-Chloro-12-[2-oxo-2-(4-pyridin-2-ylpiperazin-1-yl)ethoxy]-2,4,8,18,22-pentaazatetracyclo[14.3.1.1(3,7).1(9,13)]docosa-1(20),3(22),4,6,9(21),10,12,16,18-nonaene tris(trifluoroacetate)], the IC50 is 217 nM in experiment [1] (Table D1), over 400 nM in experiment [2] (Table D1), 52 nM in experiment [3] (Table D1) and over 400 nM in experiment [4] (Table D1).

For the compound `O=C(COc1ccc2cc1CCc1cncc(c1)Nc1ncc(Cl)c(n1)N2)N1CCN(c2ccncc2)CC1` [Example D243, 6-Chloro-12-[2-oxo-2-(4-pyridin-4-ylpiperazin-1-yl)ethoxy]-2,4,8,18,22-pentaazatetracyclo[14.3.1.1(3,7).1(9,13)]docosa-1(20),3(22),4,6,9(21),10,12,16,18-nonaene tris(trifluoroacetate)], the IC50 in experiment [1] (Table D1) was 300 nM; in experiment [2] (Table D1), 326 nM; in experiment [3] (Table D1), 60 nM; in experiment [4] (Table D1) it was over 400 nM.

As for `COc1cccnc1N1CCN(C(=O)COc2ccc3cc2CCc2cncc(c2)Nc2ncc(Cl)c(n2)N3)CC1` [Example D249, 6-Chloro-12-{2-[4-(3-methoxypyridin-2-yl)piperazin-1-yl]-2-oxoethoxy}-2,4,8,18,22-pentaazatetracyclo[14.3.1.1(3,7).1(9,13)]docosa-1(20),3(22),4,6,9(21),10,12,16,18-nonaene tris(trifluoroacetate)], the IC50 was over 400 nM in experiment [1] (Table D1), over 400 nM in experiment [2] (Table D1), 71 nM in experiment [3] (Table D1) and over 400 nM in experiment [4] (Table D1).

Take `O=C(COc1ccc2cc1CCc1cncc(c1)Nc1ncc(Cl)c(n1)N2)N1CCN(c2noc3ccccc23)CC1` [Example D250, 12-{2-[4-(1,2-Benzisoxazol-3-yl)piperazin-1-yl]-2-oxoethoxy}-6-chloro-2,4,8,18,22-pentaazatetracyclo[14.3.1.1(3,7).1(9,13)]docosa-1(20),3(22),4,6,9(21),10,12,16,18-nonaene tris(trifluoroacetate)]: the IC50 in experiment [1] (Table D1) is 49 nM; in experiment [2] (Table D1) it was over 400 nM; in experiment [3] (Table D1), 43 nM; in experiment [4] (Table D1) it was over 400 nM.

On to `O=C(Cc1coc2ccccc12)Nc1ccc2cc1CCc1cccc(c1)Nc1ncc(Cl)c(n1)N2` [Example C47, 2-(1-Benzofuran-3-yl)-N-[6-chloro-2,4,8,22-tetraazatetracyclo[14.3.1.1(3,7).1(9,13)]docosa-1(20),3(22),4,6,9(21),10,12,16,18-nonaen-12-yl]acetamide trifluoroacetate], for which the IC50 came out at 134 nM in experiment [1], 300 nM in experiment [2], 67 nM in experiment [3] and 1140 nM in experiment [4].

For `CC(=O)N1CCC[C@H](CC(=O)Nc2ccc3cc2CCc2cccc(c2)Nc2ncc(Cl)c(n2)N3)C1` [Example D201, 2-[(3R)-1-Acetylpiperidin-3-yl]-N-[6-chloro-2,4,8,22-tetraazatetracyclo[14.3.1.1(3,7).1(9,13)]docosa-1(20),3(22),4,6,9(21),10,12,16,18-nonaen-12-yl]acetamide trifluoroacetate], the IC50 turned out to be 10 nM in experiment [1] (Table D1), 35 nM in experiment [2] (Table D1), 19 nM in experiment [3] (Table D1) and 29 nM in experiment [4] (Table D1).

As to `O=C(CC1CN(C(=O)c2ccno2)C1)Nc1ccc2cc1CCc1cncc(c1)Nc1ncc(Cl)c(n1)N2` [Example D144, N-[6-Chloro-2,4,8,18,22-pentaazatetracyclo[14.3.1.1(3,7).1(9,13)]docosa-1(20),3(22),4,6,9(21),10,12,16,18-nonaen-12-yl]-2-[1-(isoxazol-5-ylcarbonyl)azetidin-3-yl]acetamide bis(trifluoroacetate)], the IC50 in experiment [1] (Table D1) was 172 nM; in experiment [2] (Table D1) it was 260 nM; in experiment [3] (Table D1) it was 32 nM; in experiment [4] (Table D1) it was over 1000 nM.

One may read the IC50 as the concentration at which inhibition is half-maximal.
